This is an account of results in ChEMBL document CHEMBL1201862, “PubChem BioAssay data set” (2004).

Among the test systems are OVCAR-5; KM12; MDA-N; Hs-578T; HT-29; SF-295; TK-10; SK-MEL-2; CCRF-CEM; ACHN; HL-60; SW-620; A549; NCI-H23; UACC-257; DU-145; SK-MEL-5; NCI-H226; LOX IMVI.
Common to all, as to experiment: NCI-60 cell line screen, 48 h

SMILES strings stand for the structures.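 Interpolation was linear, between the two tested concentrations surrounding the appropriate level; five concentrations were tested over 48 hours in 96-well plates. GI50 marks 50% less growth.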 The source made the active and inactive calls. No stated cut-off is given here; in the data, active = GI50 up to about 1.1 µM and inactive = higher.

As for `Clc1ccc(-c2noc(CN3CCCCC3)n2)cc1`, the GI50 with OVCAR-5 is > 100 µM (inactive); in the experiment with KM12, > 100 µM (inactive); with MDA-N, > 100 µM (inactive); in the experiment with Hs-578T, > 100 µM (inactive); in the experiment on HT-29 it was 46.2 µM (inactive); in the experiment with SF-295, 66.8 µM (inactive). The GI50 is > 100 µM (inactive) in the experiment on TK-10; > 100 µM (inactive) with SK-MEL-2; 77.1 µM (inactive) in the experiment on CCRF-CEM; > 100 µM (inactive) with ACHN; 85.9 µM (inactive) in the experiment on HL-60; > 100 µM (inactive) in the experiment on SW-620. Further, the GI50 in the experiment with A549 is > 100 µM (inactive); in the experiment with NCI-H23, > 100 µM (inactive); in the experiment with UACC-257, 71 µM (inactive); in the experiment with DU-145 it was > 100 µM (inactive); in the experiment on SK-MEL-5, 34 µM (inactive); in the experiment with NCI-H226, > 100 µM (inactive).
Consider `O=c1cc(-c2ccccc2)nc(-n2[nH]c3c(c2=O)CCCC3)[nH]1`, for which the GI50 with OVCAR-5 was 92.5 µM (inactive); with KM12 it was 13.3 µM (inactive); with MDA-N, 7.29 µM (inactive); with Hs-578T, 23.4 µM (inactive); in the experiment with HT-29, 4.31 µM (inactive); in the experiment with SF-295, 4.33 µM (inactive). Further, the GI50 in the experiment with TK-10 was 5 µM (inactive); with SK-MEL-2, 2.36 µM (inactive); with CCRF-CEM it was 0.769 µM (active); with ACHN, 3.66 µM (inactive); in the experiment on HL-60, 2.73 µM (inactive); in the experiment on SW-620 it was 4.24 µM (inactive). Moreover, the GI50 in the experiment on A549 was 4.35 µM (inactive); in the experiment on NCI-H23, 7.33 µM (inactive); in the experiment on UACC-257, 5.86 µM (inactive); in the experiment with DU-145, 1.57 µM (inactive); in the experiment with SK-MEL-5, 4.78 µM (inactive); in the experiment with NCI-H226 it was 3.82 µM (inactive).
For `CC1OC(OC2C(O[C@H]3CC[C@@]4(C)C(=CC[C@H]5[C@@H]6C[C@@H]7O[C@]8(CC[C@H](C)CN8)[C@@H](C)[C@@H]7[C@@]6(C)CC[C@@H]54)C3)OC(CO)C(O)C2OC2OC(CO)C(O)C(O)C2O)C(O)C(O)C1O` (stereo not given in full), the GI50 is 14.8 µM (inactive) in the experiment on OVCAR-5; 20 µM (inactive) in the experiment on KM12; 20.7 µM (inactive) in the experiment with MDA-N; 14.7 µM (inactive) with Hs-578T; 17.8 µM (inactive) with HT-29; 18.4 µM (inactive) in the experiment on SF-295. For the same molecule, the GI50 is 17.3 µM (inactive) in the experiment with TK-10; 18.4 µM (inactive) in the experiment on SK-MEL-2; 21.6 µM (inactive) with CCRF-CEM; 17.6 µM (inactive) in the experiment with ACHN; 15.5 µM (inactive) in the experiment with HL-60; 28.3 µM (inactive) in the experiment on LOX IMVI. Moreover, the GI50 in the experiment on SW-620 is 19.2 µM (inactive); in the experiment on A549, 18.1 µM (inactive); in the experiment on NCI-H23, 18.5 µM (inactive); with UACC-257 it was 18.2 µM (inactive); in the experiment on DU-145 it was 19.4 µM (inactive); with SK-MEL-5 it was 19.2 µM (inactive). For the same molecule, the GI50 in the experiment on NCI-H226 was 17.4 µM (inactive).
As to `COP(=O)(/C=C/C(NC(=O)C(Cl)(Cl)Cl)c1ccccc1)OC` (stereo not given), the GI50 with OVCAR-5, in the experiment on KM12, in the experiment with MDA-N, with Hs-578T, in the experiment on HT-29 and in the experiment on SF-295 was > 100 µM (inactive) each time. In addition, the GI50 with TK-10, in the experiment on SK-MEL-2, in the experiment on ACHN, in the experiment on HL-60, with LOX IMVI and with SW-620 was > 100 µM (inactive) each time. The GI50 in the experiment with A549, with NCI-H23, in the experiment on UACC-257, with DU-145, in the experiment on SK-MEL-5 and with NCI-H226 was > 100 µM (inactive) in each case.
As to `CC1CCCCN1CC(=O)c1ccc2c(c1)Sc1ccccc1O2` (stereo not given), the GI50 with OVCAR-5 was 18.1 µM (inactive); in the experiment with KM12, 16.5 µM (inactive); with MDA-N, 15.2 µM (inactive); with Hs-578T it was 10.8 µM (inactive); in the experiment on HT-29 it was 8.61 µM (inactive); with SF-295 it was 16.5 µM (inactive). Besides, the GI50 with TK-10 was 18.7 µM (inactive); with SK-MEL-2, 17.9 µM (inactive); with CCRF-CEM it was 16.5 µM (inactive); in the experiment with ACHN, 15.3 µM (inactive); in the experiment on HL-60, 10.2 µM (inactive); in the experiment with LOX IMVI it was 9.93 µM (inactive). Also, the GI50 was 19.1 µM (inactive) in the experiment with SW-620; 14.6 µM (inactive) in the experiment on A549; 15.2 µM (inactive) in the experiment on NCI-H23; 18.4 µM (inactive) with UACC-257; 26.7 µM (inactive) in the experiment on DU-145; 12.9 µM (inactive) in the experiment with NCI-H226.
For the molecule `Cc1c(O)c(C)c2c(C)cn(C(=O)C(C)(C)C)c2c1C`, the GI50 with OVCAR-5 is 30.2 µM (inactive); with KM12, 14 µM (inactive); in the experiment on MDA-N, 21.2 µM (inactive); in the experiment with Hs-578T, 28.4 µM (inactive); in the experiment on HT-29, 17.3 µM (inactive); in the experiment on SF-295, 17.8 µM (inactive). Also, the GI50 with TK-10 was 20.5 µM (inactive); in the experiment on SK-MEL-2, 28.2 µM (inactive); with CCRF-CEM, 19.8 µM (inactive); with ACHN, 14.2 µM (inactive); in the experiment with HL-60, 18.7 µM (inactive); with LOX IMVI, 35 µM (inactive). Further, the GI50 in the experiment on SW-620 was 29.5 µM (inactive); with A549 it was 22.9 µM (inactive); with NCI-H23 it was 15.5 µM (inactive); with DU-145 it was 20.8 µM (inactive); in the experiment with SK-MEL-5, 14.7 µM (inactive); in the experiment with NCI-H226, 12.1 µM (inactive).
Take `O=C(/C=C/c1ccccc1)CCC1C(=O)NC(=O)NC1=O`: the GI50 with OVCAR-5, in the experiment with KM12, with MDA-N, in the experiment with Hs-578T, with HT-29 and in the experiment with SF-295 was > 100 µM (inactive) each time. For the same molecule, the GI50 in the experiment with TK-10, with SK-MEL-2, in the experiment with ACHN, in the experiment with HL-60, with LOX IMVI and in the experiment on SW-620 was > 100 µM (inactive) in each case. Besides, the GI50 in the experiment with A549, in the experiment with NCI-H23, with UACC-257, in the experiment with DU-145, with SK-MEL-5 and in the experiment with NCI-H226 was > 100 µM (inactive) in each case.
On to `CCN(CC)C(=S)SC1C(=O)NC(=O)NC1=O`, for which the GI50 in the experiment with OVCAR-5, in the experiment on KM12, in the experiment with MDA-N, in the experiment on Hs-578T, with HT-29 and in the experiment with SF-295 was > 100 µM (inactive) in each case. Also, the GI50 with TK-10, in the experiment on SK-MEL-2, in the experiment with CCRF-CEM, in the experiment with ACHN, with HL-60 and with LOX IMVI was > 100 µM (inactive) in each case. The GI50 in the experiment on SW-620, in the experiment on A549, in the experiment on NCI-H23, with UACC-257, in the experiment on DU-145 and in the experiment with SK-MEL-5 was > 100 µM (inactive) in each case. Also, the GI50 with NCI-H226 was > 100 µM (inactive).
Turning to `CCCCc1c2c(nc3c1CCCC3O)CCCC2` (stereo not given), the GI50 was > 100 µM (inactive) with OVCAR-5; > 100 µM (inactive) in the experiment with KM12; > 100 µM (inactive) in the experiment on MDA-N; > 100 µM (inactive) with Hs-578T; 85.3 µM (inactive) with HT-29; > 100 µM (inactive) in the experiment with SF-295. Further, the GI50 is > 100 µM (inactive) with TK-10; > 100 µM (inactive) in the experiment on SK-MEL-2; 72.6 µM (inactive) in the experiment on CCRF-CEM; 80 µM (inactive) with ACHN; > 100 µM (inactive) in the experiment on HL-60; > 100 µM (inactive) in the experiment with SW-620. Besides, the GI50 in the experiment on A549, in the experiment on NCI-H23, in the experiment with UACC-257, in the experiment with DU-145, in the experiment on SK-MEL-5 and with NCI-H226 was > 100 µM (inactive) in each case.
For `COC(=O)c1c(C)cccc1C1CN=NC12Cc1cccc(C)c1C2=O` (stereo not given), the GI50 with OVCAR-5 was 85.7 µM (inactive); in the experiment with KM12, 31.7 µM (inactive); with MDA-N, 33.6 µM (inactive); in the experiment on Hs-578T, > 100 µM (inactive); in the experiment with HT-29 it was 33 µM (inactive); with TK-10, 35 µM (inactive). The GI50 in the experiment on SK-MEL-2 is 32.7 µM (inactive); in the experiment on CCRF-CEM, 19.8 µM (inactive); in the experiment with ACHN, 27.4 µM (inactive); in the experiment on HL-60, 11.7 µM (inactive); with LOX IMVI, 13.6 µM (inactive); with SW-620, 43.2 µM (inactive). Besides, the GI50 in the experiment with A549 is 18.9 µM (inactive); in the experiment with NCI-H23, 32.2 µM (inactive); in the experiment on UACC-257, 19.6 µM (inactive); in the experiment on DU-145, 47.3 µM (inactive); in the experiment with SK-MEL-5, 17.8 µM (inactive); with NCI-H226, 20.9 µM (inactive).
`CC(=O)OC(Cc1ccc2ccccc2n1)(C(F)(F)F)C(F)(F)F`: the GI50 in the experiment with OVCAR-5 is 2.89 µM (inactive); with KM12, 4.7 µM (inactive); in the experiment with MDA-N it was 1.17 µM (inactive); in the experiment on Hs-578T it was 1.35 µM (inactive); with HT-29 it was 1.27 µM (inactive); with SF-295, 4.5 µM (inactive). In addition, the GI50 is 0.33 µM (active) with TK-10; 1.36 µM (inactive) with SK-MEL-2; 0.0728 µM (active) in the experiment with CCRF-CEM; 3.78 µM (inactive) in the experiment on ACHN; 0.0205 µM (active) in the experiment on HL-60; 0.267 µM (active) in the experiment with LOX IMVI. Also, the GI50 with SW-620 is 0.426 µM (active); with A549, 9.53 µM (inactive); with NCI-H23 it was 1.58 µM (inactive); with DU-145, 3.31 µM (inactive); in the experiment with SK-MEL-5 it was 0.253 µM (active); in the experiment with NCI-H226, 1.76 µM (inactive).
